{"source": "PubChem BioAssay AID1249", "about": "(Columbia University Molecular Screening Center, 2008)", "note": "Activity calls are given as the source filed them. How the calls were made is not given here.", "data": [{"test": "cellular cytoskeleton assembly phenotype modulators – imaging, high-content imaging, retest and dose response, confirmation (AID 1249);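 further: compound exposure lasted 24 h before fixation; plate controls were untreated cells for no effect and reference compound treated cells for full effect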", "conditions": "cell-based imaging, cytoskeleton assembly phenotype, high content; at 2 µM; active compounds read high", "values": [{"smiles": "Cc1ccc(-c2cc(C(=O)NCc3ccccn3)no2)cc1", "inhibition": "3.6% (inactive)"}, {"smiles": "O=C1OCC(CO)(CO)N=C1NNc1ccccc1Cl", "inhibition": "19.6% (inactive)"}, {"smiles": "COC(=O)c1ccccc1NC(=O)Cn1c(-c2nonc2N)nc2ccccc21", "inhibition": "4.2% (inactive)"}, {"smiles": "COC(=O)c1cscc1NC(C)=O", "inhibition": "13.2% (inactive)"}, {"smiles": "CCn1ccnc1C(O)c1cccc(OC)c1", "note": "(configuration not stated)", "inhibition": "6.1% (inactive)"}, {"smiles": "COc1ccc(-c2cc(C(=O)Nc3cc(C)n(Cc4ccc(Cl)cc4)n3)no2)cc1OC", "inhibition": "6.8% (inactive)"}, {"smiles": "COc1ccc(C(=O)c2c(C(F)(F)F)oc3c2C(=O)c2ccccc2C3=O)cc1", "inhibition": "-14.9% (inactive)"}, {"smiles": "CN1C(=O)C2(NCCc3c2[nH]c2ccccc32)c2ccccc21", "note": "(configuration not stated)", "inhibition": "-6.1% (inactive)"}, {"smiles": "COCCCNC(=O)c1cn(C)c(=O)c2cc(OC)c(OC)cc12", "inhibition": "-7.3% (inactive)"}, {"smiles": "Cc1cc(NC(=O)CSc2nc3ccccc3c(=O)n2C2CCCC2)no1", "inhibition": "6.7% (inactive)"}, {"smiles": "CCN1CCN(CC(=O)Nc2nc3ccc(OC)cc3s2)CC1", "inhibition": "-8.7% (inactive)"}, {"smiles": "COc1ccc(CC(=O)OCc2cc3ccc(C)cc3[nH]c2=O)cc1", "inhibition": "5.4% (inactive)"}, {"smiles": "Cc1ccc2nc(SCC(=O)Nc3cc(C(F)(F)F)ccc3N3CCOCC3)[nH]c2c1", "inhibition": "-6.4% (inactive)"}, {"smiles": "Cc1noc(C)c1S(=O)(=O)N1CCC2(CC1)OCCO2", "inhibition": "-7.2% (inactive)"}, {"smiles": "CC(=O)Cn1c(N2CCC(Cc3ccccc3)CC2)nc2c1c(=O)[nH]c(=O)n2C", "inhibition": "-5.3% (inactive)"}, {"smiles": "O=C(O)CCC(=O)NC1CCCCCCC1", "inhibition": "3.8% (inactive)"}, {"smiles": "O=C(Nc1ncc2c(n1)CC(c1ccco1)CC2=O)c1ccc(Cl)cc1", "note": "(configuration not stated)", "inhibition": "-4.9% (inactive)"}, {"smiles": "COC(=O)c1ccccc1NC(NC(=O)c1ccco1)C(=O)c1ccc(C)cc1", "note": "(configuration not stated)", "inhibition": "2.9% (inactive)"}, {"smiles": "CC1CC(=O)NN=C1c1ccc(NCCO)c([N+](=O)[O-])c1", "note": "(configuration not stated)", "inhibition": "-4.6% (inactive)"}, {"smiles": "Cc1csc(NC(=O)CSc2nnc(-c3ccc(S(=O)(=O)N4CCCC4)cc3)o2)n1", "inhibition": "4.6% (inactive)"}, {"smiles": "CCOc1ccc(C=O)cc1CN1CCCCC1", "inhibition": "-10% (inactive)"}, {"smiles": "CSC1=NCCN1C(=O)Cc1ccc(Cl)cc1", "inhibition": "3% (inactive)"}, {"smiles": "COc1cc(C(=O)N(Cc2ccco2)Cc2cc3ccccc3[nH]c2=O)cc(OC)c1OC", "inhibition": "-1% (inactive)"}, {"smiles": "COc1ccc(-n2nnnc2S(=O)(=O)CC(=O)N2CCCCC2)cc1", "inhibition": "0.7% (inactive)"}, {"smiles": "OC(c1ccccn1)c1c[nH]c2ccccc12", "note": "(configuration not stated)", "inhibition": "14.9% (inactive)"}, {"smiles": "Cn1nc(C(=O)OCC(=O)N2CCc3ccccc32)c2ccccc2c1=O", "inhibition": "4.3% (inactive)"}, {"smiles": "CCOC(=O)c1cnn(-c2nc3c(C)cccc3s2)c1C", "inhibition": "-1.2% (inactive)"}, {"smiles": "C=CCOc1c2ccc(C(=O)NCc3ccccc3OC)cc2nn1C", "inhibition": "-6.1% (inactive)"}, {"smiles": "C=CCn1c(COc2ccc(Cl)cc2)nnc1SCC(=O)N/N=C/c1cccc(O)c1", "inhibition": "-5.9% (inactive)"}, {"smiles": "COc1cccc(OC)c1NC(=O)CN1CCC(NC(=O)c2cccc(F)c2)CC1", "inhibition": "0.4% (inactive)"}, {"smiles": "Cc1ccc(O)c(NC(=O)CCC2CCCCC2)c1", "inhibition": "-15.6% (inactive)"}, {"smiles": "CSc1nnc2n(-c3ccccc3)c(=O)c3c4c(sc3n12)CCC4", "inhibition": "8.1% (inactive)"}, {"smiles": "CCc1ccc2oc(-c3cc(N)ccc3O)nc2c1", "inhibition": "-11.6% (inactive)"}, {"smiles": "FC(F)(F)c1cc(-c2ccc3c(c2)OCO3)nc(NCc2ccco2)n1", "inhibition": "-1.9% (inactive)"}, {"smiles": "O=C(NC(Nc1nc2ccc([N+](=O)[O-])cc2s1)(C(F)(F)F)C(F)(F)F)c1ccccc1", "inhibition": "-15.3% (inactive)"}, {"smiles": "Cc1nc(S(=O)(=O)N(C)Cc2ccccc2)c(C#N)c(C)c1Cl", "inhibition": "-5.1% (inactive)"}, {"smiles": "O=C(Nc1ccccc1)c1nnsc1S(=O)(=O)c1ccc(Cl)cc1", "inhibition": "5.3% (inactive)"}, {"smiles": "Cc1ccc(C(=O)c2cc([N+](=O)[O-])ccc2N2CCOCC2)c(C)c1", "inhibition": "3.2% (inactive)"}, {"smiles": "CCCn1c(=O)c2ccccc2n2c(SCC(=O)NCc3cccs3)nnc12", "inhibition": "-5.9% (inactive)"}, {"smiles": "COc1ccc(C(=O)c2ccc(N(C)C)cc2)c2ccccc12", "inhibition": "-3.3% (inactive)"}, {"smiles": "CC(C)C(=O)Nc1ccc(C(=O)NNC(=O)NC2CCCCC2)cc1", "inhibition": "-9.2% (inactive)"}, {"smiles": "c1ccc(-n2ncc3c(NCc4ccccn4)ncnc32)cc1", "inhibition": "24.5% (inactive)"}, {"smiles": "COc1ccc(-c2n[nH]c(=S)n2C2CCCCC2)cc1", "inhibition": "5.3% (inactive)"}, {"smiles": "C/C(Cl)=C\\Cn1c(NCCCn2ccnc2)nc2c1c(=O)n(C)c(=O)n2C", "inhibition": "-1.5% (inactive)"}, {"smiles": "Cc1cccnc1N(C(=O)Nc1ccccc1)C1=NCC(C)(C)S1", "inhibition": "-10.2% (inactive)"}, {"smiles": "CCN1C(=O)c2cccc3c(S(=O)(=O)NCc4ccccn4)ccc1c23", "inhibition": "-20.8% (inactive)"}, {"smiles": "CNc1c([N+](=O)[O-])cnn1-c1ccc(Cl)cc1", "inhibition": "-10.2% (inactive)"}, {"smiles": "CCCNS(=O)(=O)c1ccc2c(c1)CCCN2C(C)=O", "inhibition": "-1.4% (inactive)"}, {"smiles": "CN=c1sc2ccccc2n1CC(O)COc1ccccc1", "note": "(configuration not stated)", "inhibition": "-6.5% (inactive)"}, {"smiles": "O=S(=O)(c1ccc2c(c1)OCCCO2)N1CCNCC1", "inhibition": "0.7% (inactive)"}, {"smiles": "Cc1cc(C)n(-c2nc(-c3cccc(Cl)c3)cs2)n1", "inhibition": "-10.2% (inactive)"}, {"smiles": "Cc1ccc(-c2nc(NC(=O)c3nn(C)cc3[N+](=O)[O-])sc2C)cc1", "inhibition": "5.1% (inactive)"}, {"smiles": "Cc1cccc(OCC(=O)Nc2cc(C)ccc2O)c1", "inhibition": "-8.8% (inactive)"}, {"smiles": "CCn1c(SCC(=O)N2CCN(c3cccc(Cl)c3)CC2)nc2ccccc2c1=O", "inhibition": "-3.6% (inactive)"}, {"smiles": "C=CCn1c(SCc2c(C)noc2C)nc2ccccc2c1=O", "inhibition": "4.2% (inactive)"}, {"smiles": "C=CCn1c(=O)c2c(nc3n2CC(C)CN3c2cccc(OC)c2)n(C)c1=O", "note": "(configuration not stated)", "inhibition": "-8.1% (inactive)"}, {"smiles": "Cc1n[nH]c(=O)nc1NCc1ccccc1", "inhibition": "4% (inactive)"}, {"smiles": "C=C(C)c1cccc(C(C)(C)NC(=O)Nc2ncccn2)c1", "inhibition": "1.8% (inactive)"}, {"smiles": "O=C(OCn1ncc(Br)c(Br)c1=O)c1ccc(F)cc1", "inhibition": "10.9% (inactive)"}, {"smiles": "COc1ccc(NC(=O)C(NC(=O)c2ccccc2)C(C)C)cc1", "note": "(configuration not stated)", "inhibition": "4.5% (inactive)"}, {"smiles": "COc1ccc(CSc2nc3ccccc3[nH]2)cc1", "inhibition": "9.9% (inactive)"}, {"smiles": "CCCCCCCC(=O)N/N=C(\\C)c1cccnc1", "inhibition": "2.2% (inactive)"}, {"smiles": "COC(=O)Sc1nc(N2CCOCC2)c2c(c1C#N)CC(C)(C)OC2", "inhibition": "4.8% (inactive)"}, {"smiles": "OCCNCC(O)Cn1ccc2ccccc21", "note": "(configuration not stated)", "inhibition": "-2.9% (inactive)"}, {"smiles": "COc1ccccc1C(=O)Nc1ccc2c(c1)nc(CN1CCN(C(C)=O)CC1)n2C", "inhibition": "5.7% (inactive)"}, {"smiles": "O=C(COc1ncnc2sccc12)Nc1ccc2c(c1)OCCO2", "inhibition": "1.1% (inactive)"}, {"smiles": "Cc1ccccc1CS(=O)(=O)c1nnc([C@H](Cc2ccccc2)NC(=O)OC(C)(C)C)o1", "inhibition": "0.1% (inactive)"}, {"smiles": "COc1ccc2c(c1)CCc1c(C(=O)N3CC4(C)CC3CC(C)(C)C4)noc1-2", "note": "(configuration not stated)", "inhibition": "4.4% (inactive)"}, {"smiles": "O=C(CCSc1nnc2scc(-c3ccccc3)n12)Nc1nc(-c2ccccc2)ns1", "inhibition": "-3.3% (inactive)"}, {"smiles": "COc1ccc(-c2nc(C#N)c(NCCCN(C)C)o2)cc1OC", "inhibition": "4.5% (inactive)"}, {"smiles": "Cc1cc(C)cc(OCCCCCNCCO)c1", "inhibition": "-6.8% (inactive)"}, {"smiles": "COc1ccc(S(=O)(=O)N2CCCC2C(=O)Nc2ccc(C)cc2)cc1", "note": "(configuration not stated)", "inhibition": "3.2% (inactive)"}, {"smiles": "CC(C)NC1CS(=O)(=O)CC1O", "note": "(configuration not stated)", "inhibition": "4.9% (inactive)"}, {"smiles": "CS(=O)(=O)N(CC(=O)NCc1ccccc1Cl)Cc1ccccc1", "inhibition": "0% (inactive)"}, {"smiles": "COc1cccc(C(=O)Nc2cccc(-c3nc4ncccc4o3)c2C)c1", "inhibition": "1.2% (inactive)"}, {"smiles": "Cc1cc(C(=O)NN=C2C3CC4CC(C3)CC2C4)c2ccccc2n1", "inhibition": "-3.8% (inactive)"}, {"smiles": "C#CC(=O)N(c1cccc(OC)c1)C(C(=O)NC1CCCC1)c1cccs1", "note": "(configuration not stated)", "inhibition": "-5.8% (inactive)"}, {"smiles": "O=C(COc1ccccc1)N1CCN(CC(O)COc2ccccc2)CC1", "note": "(configuration not stated)", "inhibition": "11.3% (inactive)"}, {"smiles": "CCOc1ccc(C(=O)C(c2ccccc2)N2CCOCC2)cc1", "note": "(configuration not stated)", "inhibition": "4.3% (inactive)"}, {"smiles": "O=S(=O)(Nc1ccc(-n2cccc2)cc1)c1ccccc1", "inhibition": "0.5% (inactive)"}, {"smiles": "O=C(OCn1ncc(Br)c(Br)c1=O)c1c(F)cccc1F", "inhibition": "-3.7% (inactive)"}, {"smiles": "Cc1ccccc1-c1cc(-c2ccccc2O)on1", "inhibition": "-5.9% (inactive)"}, {"smiles": "CC(=O)c1cccc(NC(=O)NCc2cccnc2)c1", "inhibition": "12.9% (inactive)"}, {"smiles": "CCOC(=O)/C(=C\\c1cccnc1)C(=O)c1cc(C(C)=O)c(Nc2ccccc2)s1", "inhibition": "5.1% (inactive)"}, {"smiles": "CCCCn1cnc2c1c(=O)[nH]c(=O)n2CCCC", "inhibition": "-11.3% (inactive)"}, {"smiles": "Cc1nonc1NC(=O)CSc1nc(C2CCCCC2)nc2ccccc12", "inhibition": "-6.5% (inactive)"}, {"smiles": "COc1ccc(Nc2cc(C(=O)NCCCN3CCOCC3)c3ccccc3n2)cc1OC", "inhibition": "4.3% (inactive)"}, {"smiles": "Cc1ccccc1CN1C(=O)C2(OCCCO2)c2ccccc21", "inhibition": "3.7% (inactive)"}, {"smiles": "CC(C)(C)NC(=O)C1N(c2cccnc2)C(=O)C2C(C(=O)Nc3ccccc3F)C3(C)C=CC21O3", "note": "(configuration not stated)", "inhibition": "-29.5% (inactive)"}, {"smiles": "CSCCC(NC(=O)OCc1ccccc1)C(=O)O", "note": "(configuration not stated)", "inhibition": "-2% (inactive)"}, {"smiles": "Cc1cc(NC(=O)C2C3C=CC(C3)C2C(=O)O)no1", "note": "(configuration not stated)", "inhibition": "0.1% (inactive)"}, {"smiles": "Cc1cccc(NC(=O)CSc2nc3ccc(NC(=O)CSc4nnnn4-c4ccccc4)cc3s2)c1C", "inhibition": "2.9% (inactive)"}, {"smiles": "O=C(COC(=O)c1ccccc1C(=O)c1ccc(Cl)c([N+](=O)[O-])c1)NC1CCCCCC1", "inhibition": "-8.3% (inactive)"}, {"smiles": "N/C(Cc1cccs1)=N\\OC(=O)COc1ccc(Br)cc1Cl", "inhibition": "-3.7% (inactive)"}, {"smiles": "CCCn1nc([N+](=O)[O-])c(C(C#N)c2nc3ccccc3s2)c(Cl)c1=O", "note": "(configuration not stated)", "inhibition": "1.3% (inactive)"}, {"smiles": "CCCOC(=O)C1C2C=C[C@]3(CN(CCc4ccccc4)C(=O)[C@H]13)O2", "note": "(some centres not stated)", "inhibition": "-9.4% (inactive)"}, {"smiles": "CCC(=O)Nc1nc(-c2ccccc2)ns1", "inhibition": "-1.3% (inactive)"}, {"smiles": "C/C=C/COC(=O)c1[nH]c2c(c1C)C(=O)CC(c1ccco1)C2", "note": "(configuration not stated)", "inhibition": "-1.7% (inactive)"}, {"smiles": "Cn1c(NCc2c[nH]c3ccccc23)nc2ccccc21", "inhibition": "-13.6% (inactive)"}, {"smiles": "CCOC(=O)C(C)Oc1cccc2c(=O)n(CC(=O)NCc3ccc4c(c3)OCO4)ccc12", "note": "(configuration not stated)", "inhibition": "1.3% (inactive)"}, {"smiles": "CCCOc1ccc(C(=O)C(CN2CCOCC2)c2ccccc2)cc1", "note": "(configuration not stated)", "inhibition": "4.4% (inactive)"}, {"smiles": "Cc1ccc(CNC(=O)Cn2ccc3ccccc3c2=O)o1", "inhibition": "-10.7% (inactive)"}]}]}
